Test results as given in PubChem BioAssay AID2060497 (Molecular Pharmacology Branch, DTP, NCI, 2025).

System: 317291-083-R-J1-PDC complex spheroids, viability
Assay: Anticancer human tumor 317291-083-R-J1-PDC patient-derived soft tissue sarcoma cell line growth inhibition [GQUAD]
Conditions: for IC50: curve of first compound; for viability, T/C: stronger effect = lower value
Outline: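 Multi-cell-type spheroids of tumor cells with HUVEC and mesenchymal stem cells, treated with drug combinations. Concentrations descend in half-log steps from near clinical Cmax, or from 10 microM where Cmax is unknown; viability read-out.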

[1] = second compound 0.0316 µM, first compound 0.0316 µM
[2] = second compound 0.0316 µM, first compound 0.1 µM
[3] = second compound 0.0316 µM, first compound 0.316 µM
[4] = second compound 0.0316 µM, first compound 1 µM
[5] = second compound 0.0316 µM, first compound 3.16 µM
[6] = second compound 0.0316 µM, first compound 10 µM
[7] = second compound 0.1 µM, first compound 0.0316 µM
[8] = second compound 0.1 µM, first compound 0.1 µM
[9] = second compound 0.1 µM, first compound 0.316 µM
[10] = second compound 0.1 µM, first compound 1 µM
[11] = second compound 0.1 µM, first compound 3.16 µM
[12] = second compound 0.1 µM, first compound 10 µM
[13] = second compound 0.316 µM, first compound 0.0316 µM
[14] = second compound 0.316 µM, first compound 0.1 µM
[15] = second compound 0.316 µM, first compound 0.316 µM
[16] = second compound 0.316 µM, first compound 1 µM
[17] = second compound 0.316 µM, first compound 3.16 µM
[18] = second compound 0.316 µM, first compound 10 µM
[19] = second compound 1 µM, first compound 0.0316 µM
[20] = second compound 1 µM, first compound 0.1 µM
[21] = second compound 1 µM, first compound 0.316 µM
[22] = second compound 1 µM, first compound 1 µM
[23] = second compound 1 µM, first compound 3.16 µM
[24] = second compound 1 µM, first compound 10 µM
[25] = second compound 3.16 µM, first compound 0.0316 µM
[26] = second compound 3.16 µM, first compound 0.1 µM
[27] = second compound 3.16 µM, first compound 0.316 µM
[28] = second compound 3.16 µM, first compound 1 µM
[29] = second compound 3.16 µM, first compound 3.16 µM
[30] = second compound 3.16 µM, first compound 10 µM
[31] = second compound 10 µM, first compound 0.0316 µM
[32] = second compound 10 µM, first compound 0.1 µM
[33] = second compound 10 µM, first compound 0.316 µM
[34] = second compound 10 µM, first compound 1 µM
[35] = second compound 10 µM, first compound 3.16 µM
[36] = second compound 10 µM, first compound 10 µM
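Note: spheroids exposed to compounds for one week before readout.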
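Throughout, for viability, T/C: percent viability relative to DMSO vehicle wells taken as 100%.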

## CC1COCCN1c1cc(C2(S(C)(=N)=O)CC2)nc(-c2ccnc3[nH]ccc23)n1 (stereo not given) + CN(C)c1ccc(Nc2c3ccc(NC(=O)CCN4CCCC4)cc3nc3cc(NC(=O)CCN4CCCC4)ccc23)cc1
Second compound 0.0316 µM
  IC50: 0.956 µM
Second compound 0.1 µM
  IC50: 1.15 µM
Second compound 0.316 µM
  IC50: 0.432 µM
Second compound 1 µM
  IC50: 0.0773 µM
Second compound 3.16 µM
  IC50: < 0.0316 µM
Second compound 10 µM
  IC50: < 0.0316 µM
[1]
  viability, T/C: 123%
[2]
  viability, T/C: 111%
[3]
  viability, T/C: 81.6%
[4]
  viability, T/C: 49.3%
[5]
  viability, T/C: 25.8%
[6]
  viability, T/C: 15.9%
[7]
  viability, T/C: 141%
[8]
  viability, T/C: 105%
[9]
  viability, T/C: 82.6%
[10]
  viability, T/C: 54.6%
[11]
  viability, T/C: 22.2%
[12]
  viability, T/C: 17.1%
[13]
  viability, T/C: 84.9%
[14]
  viability, T/C: 79.9%
[15]
  viability, T/C: 55.7%
[16]
  viability, T/C: 32%
[17]
  viability, T/C: 21.6%
[18]
  viability, T/C: 16.8%
[19]
  viability, T/C: 56.6%
[20]
  viability, T/C: 44.1%
[21]
  viability, T/C: 41.9%
[22]
  viability, T/C: 18.3%
[23]
  viability, T/C: 15.2%
[24]
  viability, T/C: 7.51%
[25]
  viability, T/C: 38%
[26]
  viability, T/C: 24.3%
[27]
  viability, T/C: 37.5%
[28]
  viability, T/C: 12.3%
[29]
  viability, T/C: 8.02%
[30]
  viability, T/C: 7.55%
[31]
  viability, T/C: 3.33%
[32]
  viability, T/C: 5.73%
[33]
  viability, T/C: 7.2%
[34]
  viability, T/C: 6.92%
[35]
  viability, T/C: 3.25%
[36]
  viability, T/C: 1.68%

## O=C(c1cc(Cc2n[nH]c(=O)c3ccccc23)ccc1F)N1CCN(C(=O)C2CC2)CC1 + Cc1cnc(CNC(=O)c2c(=O)c3ccc(N4CCCN(C)CC4)nc3n3c2sc2ccccc23)cn1
Second compound 0.0316 µM
  IC50: > 10 µM
Second compound 0.1 µM
  IC50: 2.17 µM
Second compound 0.316 µM
  IC50: < 0.0316 µM
Second compound 1 µM
  IC50: < 0.0316 µM
Second compound 3.16 µM
  IC50: < 0.0316 µM
Second compound 10 µM
  IC50: < 0.0316 µM
[1]
  viability, T/C: 101%
[2]
  viability, T/C: 92.4%
[3]
  viability, T/C: 89.7%
[4]
  viability, T/C: 77.5%
[5]
  viability, T/C: 67.7%
[6]
  viability, T/C: 59.3%
[7]
  viability, T/C: 88.3%
[8]
  viability, T/C: 72.7%
[9]
  viability, T/C: 64.5%
[10]
  viability, T/C: 57.6%
[11]
  viability, T/C: 53.3%
[12]
  viability, T/C: 31.2%
[13]
  viability, T/C: 44.7%
[14]
  viability, T/C: 43.4%
[15]
  viability, T/C: 57.1%
[16]
  viability, T/C: 33.8%
[17]
  viability, T/C: 39.2%
[18]
  viability, T/C: 46%
[19]
  viability, T/C: 30%
[20]
  viability, T/C: 38.5%
[21]
  viability, T/C: 51.5%
[22]
  viability, T/C: 26.6%
[23]
  viability, T/C: 24.2%
[24]
  viability, T/C: 19.6%
[25]
  viability, T/C: 17.2%
[26]
  viability, T/C: 14.6%
[27]
  viability, T/C: 64.8%
[28]
  viability, T/C: 39.8%
[29]
  viability, T/C: 32.8%
[30]
  viability, T/C: 14.8%
[31]
  viability, T/C: 31.1%
[32]
  viability, T/C: 16.8%
[33]
  viability, T/C: 19.1%
[34]
  viability, T/C: 36.2%
[35]
  viability, T/C: 20.5%
[36]
  viability, T/C: 15.2%

## COc1ncnc(C2CC2)c1-c1ncc2cnn(Cc3ccc(-c4nc(C(F)(F)F)cn4C(C)C)cc3)c2n1 + CN(C)c1ccc(Nc2c3ccc(NC(=O)CCN4CCCC4)cc3nc3cc(NC(=O)CCN4CCCC4)ccc23)cc1
Second compound 0.0316 µM
  IC50: > 10 µM
Second compound 0.1 µM
  IC50: > 10 µM
Second compound 0.316 µM
  IC50: < 0.0316 µM
Second compound 1 µM
  IC50: < 0.0316 µM
Second compound 3.16 µM
  IC50: < 0.0316 µM
Second compound 10 µM
  IC50: < 0.0316 µM
[1]
  viability, T/C: 88.5%
[2]
  viability, T/C: 77.1%
[3]
  viability, T/C: 69%
[4]
  viability, T/C: 70.3%
[5]
  viability, T/C: 64.3%
[6]
  viability, T/C: 59.9%
[7]
  viability, T/C: 79.9%
[8]
  viability, T/C: 61.4%
[9]
  viability, T/C: 65.9%
[10]
  viability, T/C: 61.4%
[11]
  viability, T/C: 51.6%
[12]
  viability, T/C: 60.2%
[13]
  viability, T/C: 48.2%
[14]
  viability, T/C: 44.2%
[15]
  viability, T/C: 41.9%
[16]
  viability, T/C: 37.4%
[17]
  viability, T/C: 37.4%
[18]
  viability, T/C: 36.1%
[19]
  viability, T/C: 32.4%
[20]
  viability, T/C: 50.2%
[21]
  viability, T/C: 35.7%
[22]
  viability, T/C: 16.5%
[23]
  viability, T/C: 26.6%
[24]
  viability, T/C: 17.3%
[25]
  viability, T/C: 33.4%
[26]
  viability, T/C: 2.38%
[27]
  viability, T/C: 3.48%
[28]
  viability, T/C: 1.13%
[29]
  viability, T/C: 2.41%
[30]
  viability, T/C: 1.37%
[31]
  viability, T/C: 0.61%
[32]
  viability, T/C: 0.24%
[33]
  viability, T/C: 0.23%
[34]
  viability, T/C: 0.23%
[35]
  viability, T/C: 0.28%
[36]
  viability, T/C: 0.22%

## C=CCn1c(=O)c2cnc(Nc3ccc(N4CCN(C)CC4)cc3)nc2n1-c1cccc(C(C)(C)O)n1 + CN(C)c1ccc(Nc2c3ccc(NC(=O)CCN4CCCC4)cc3nc3cc(NC(=O)CCN4CCCC4)ccc23)cc1
Second compound 0.0316 µM
  IC50: 0.147 µM
Second compound 0.1 µM
  IC50: 0.11 µM
Second compound 0.316 µM
  IC50: 0.0346 µM
Second compound 1 µM
  IC50: < 0.0316 µM
Second compound 3.16 µM
  IC50: < 0.0316 µM
Second compound 10 µM
  IC50: < 0.0316 µM
[1]
  viability, T/C: 87.1%
[2]
  viability, T/C: 64.3%
[3]
  viability, T/C: 21.7%
[4]
  viability, T/C: 14.2%
[5]
  viability, T/C: 8.78%
[6]
  viability, T/C: 8.84%
[7]
  viability, T/C: 82.5%
[8]
  viability, T/C: 52%
[9]
  viability, T/C: 25.7%
[10]
  viability, T/C: 12.4%
[11]
  viability, T/C: 9.4%
[12]
  viability, T/C: 8.71%
[13]
  viability, T/C: 51.3%
[14]
  viability, T/C: 34.4%
[15]
  viability, T/C: 14.4%
[16]
  viability, T/C: 7.47%
[17]
  viability, T/C: 7.01%
[18]
  viability, T/C: 5.2%
[19]
  viability, T/C: 31.1%
[20]
  viability, T/C: 14.4%
[21]
  viability, T/C: 8.51%
[22]
  viability, T/C: 2.77%
[23]
  viability, T/C: 1.74%
[24]
  viability, T/C: 1.3%
[25]
  viability, T/C: 2.02%
[26]
  viability, T/C: 1.03%
[27]
  viability, T/C: 0.41%
[28]
  viability, T/C: 3.62%
[29]
  viability, T/C: 0.31%
[30]
  viability, T/C: 0.14%
[31]
  viability, T/C: 0.27%
[32]
  viability, T/C: 0.13%
[33]
  viability, T/C: 0.18%
[34]
  viability, T/C: 0.15%
[35]
  viability, T/C: 0.21%
[36]
  viability, T/C: 0.15%

## Cc1cccc(N(C)C(=O)C2C(O)CCN2c2nc(C)cc(C(F)(F)F)c2C#N)c1 (stereo not given) + Cc1[nH]c2ccc(F)cc2c1-c1nc2c3cccnc3c3ncccc3c2[nH]1
Second compound 0.0316 µM
  IC50: > 10 µM
Second compound 0.1 µM
  IC50: > 10 µM
Second compound 0.316 µM
  IC50: > 10 µM
Second compound 1 µM
  IC50: > 10 µM
Second compound 3.16 µM
  IC50: > 10 µM
Second compound 10 µM
  IC50: > 10 µM
[1]
  viability, T/C: 112%
[2]
  viability, T/C: 113%
[3]
  viability, T/C: 105%
[4]
  viability, T/C: 120%
[5]
  viability, T/C: 100%
[6]
  viability, T/C: 91.9%
[7]
  viability, T/C: 117%
[8]
  viability, T/C: 95.1%
[9]
  viability, T/C: 118%
[10]
  viability, T/C: 104%
[11]
  viability, T/C: 121%
[12]
  viability, T/C: 87.7%
[13]
  viability, T/C: 102%
[14]
  viability, T/C: 111%
[15]
  viability, T/C: 102%
[16]
  viability, T/C: 113%
[17]
  viability, T/C: 121%
[18]
  viability, T/C: 93.4%
[19]
  viability, T/C: 126%
[20]
  viability, T/C: 112%
[21]
  viability, T/C: 121%
[22]
  viability, T/C: 111%
[23]
  viability, T/C: 102%
[24]
  viability, T/C: 86.7%
[25]
  viability, T/C: 111%
[26]
  viability, T/C: 113%
[27]
  viability, T/C: 107%
[28]
  viability, T/C: 110%
[29]
  viability, T/C: 111%
[30]
  viability, T/C: 69%
[31]
  viability, T/C: 95.1%
[32]
  viability, T/C: 89.6%
[33]
  viability, T/C: 101%
[34]
  viability, T/C: 104%
[35]
  viability, T/C: 92.5%
[36]
  viability, T/C: 108%
